Data as given in PubChem BioAssay AID2060614 (Molecular Pharmacology Branch, DTP, NCI, 2025).
Several values for one entry are separate records, joined by “and”; a condition that tells them apart may be missing. Equal values may be shown once.

Tested on: 598228-144-R-J1-PDC complex spheroids, viability
Test: Anticancer human tumor 598228-144-R-J1-PDC patient-derived serous endometrial adenocarcinoma cell line growth inhibition [CLK]
Conditions: for viability, T/C: stronger effect = lower value
Summary of the method: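 Multi-cell-type spheroids combined patient-derived tumor cells with HUVEC endothelial cells and human mesenchymal stem cells. Paired agents were dosed in half-log steps down from about clinical Cmax, or from 10 microM where Cmax was unknown.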

[1] = curve of first compound, second compound 0.0316 µM
[2] = curve of first compound, second compound 0.1 µM
[3] = curve of first compound, second compound 0.316 µM
[4] = curve of first compound, second compound 1 µM
[5] = curve of first compound, second compound 3.16 µM
[6] = curve of first compound, second compound 10 µM
[7] = second compound 0.0316 µM, first compound 0.0316 µM
[8] = second compound 0.0316 µM, first compound 0.1 µM
[9] = second compound 0.0316 µM, first compound 0.316 µM
[10] = second compound 0.0316 µM, first compound 1 µM
[11] = second compound 0.1 µM, first compound 0.0316 µM
[12] = second compound 0.1 µM, first compound 0.1 µM
[13] = second compound 0.1 µM, first compound 0.316 µM
[14] = second compound 0.1 µM, first compound 1 µM
[15] = second compound 0.316 µM, first compound 0.0316 µM
[16] = second compound 0.316 µM, first compound 0.1 µM
[17] = second compound 0.316 µM, first compound 0.316 µM
[18] = second compound 0.316 µM, first compound 1 µM
[19] = second compound 1 µM, first compound 0.0316 µM
[20] = second compound 1 µM, first compound 0.1 µM
[21] = second compound 1 µM, first compound 0.316 µM
[22] = second compound 1 µM, first compound 1 µM
[23] = second compound 3.16 µM, first compound 0.0316 µM
[24] = second compound 3.16 µM, first compound 0.1 µM
[25] = second compound 3.16 µM, first compound 0.316 µM
[26] = second compound 3.16 µM, first compound 1 µM
[27] = second compound 10 µM, first compound 0.0316 µM
[28] = second compound 10 µM, first compound 0.1 µM
[29] = second compound 10 µM, first compound 0.316 µM
[30] = second compound 10 µM, first compound 1 µM
[31] = second compound 0.0316 µM, first compound 3.16 µM
[32] = second compound 0.0316 µM, first compound 10 µM
[33] = second compound 0.1 µM, first compound 3.16 µM
[34] = second compound 0.1 µM, first compound 10 µM
[35] = second compound 0.316 µM, first compound 3.16 µM
[36] = second compound 0.316 µM, first compound 10 µM
[37] = second compound 1 µM, first compound 3.16 µM
[38] = second compound 1 µM, first compound 10 µM
[39] = second compound 3.16 µM, first compound 3.16 µM
[40] = second compound 3.16 µM, first compound 10 µM
[41] = second compound 10 µM, first compound 3.16 µM
[42] = second compound 10 µM, first compound 10 µM
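Further: spheroids exposed to compounds for seven days before readout.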
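Wherever viability, T/C is given: 100% = DMSO vehicle control wells.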

O=c1[nH]cc(F)c(=O)[nH]1
viability, T/C (compound 0.0316 µM): 106% and 89.1% | viability, T/C (compound 0.1 µM): 94.6% and 96.1% | viability, T/C (compound 0.316 µM): 101% and 88.6% | viability, T/C (compound 1 µM): 97.6% and 99.6% | viability, T/C (compound 3.16 µM): 99.3% and 88.9% | viability, T/C (compound 10 µM): 74.2% and 77.3% | IC50 (curve of compound): > 10000 nM

CCN1CCN(Cc2ccc(Nc3ncc(F)c(-c4cc(F)c5nc(C)n(C(C)C)c5c4)n3)nc2)CC1 + CNC(=O)c1ccc(Nc2nc(OC3CCCC3)c3c(-c4ccc5nc(C)oc5c4)c[nH]c3n2)c(OC)c1
IC50 [1]: > 1000 nM | IC50 [2]: > 1000 nM | IC50 [3]: > 1000 nM | IC50 [4]: > 1000 nM | IC50 [5]: > 1000 nM | IC50 [6]: > 1000 nM | viability, T/C (second compound 0.0316 µM, first compound 0.00316 µM): 104% | viability, T/C (second compound 0.0316 µM, first compound 0.01 µM): 114% | viability, T/C [7]: 105% | viability, T/C [8]: 116% | viability, T/C [9]: 112% | viability, T/C [10]: 88.8% | viability, T/C (second compound 0.1 µM, first compound 0.00316 µM): 110% | viability, T/C (second compound 0.1 µM, first compound 0.01 µM): 110% | viability, T/C [11]: 126% | viability, T/C [12]: 109% | viability, T/C [13]: 120% | viability, T/C [14]: 97.5% | viability, T/C (second compound 0.316 µM, first compound 0.00316 µM): 119% | viability, T/C (second compound 0.316 µM, first compound 0.01 µM): 107% | viability, T/C [15]: 118% | viability, T/C [16]: 99% | viability, T/C [17]: 108% | viability, T/C [18]: 87.5% | viability, T/C (second compound 1 µM, first compound 0.00316 µM): 105% | viability, T/C (second compound 1 µM, first compound 0.01 µM): 89.8% | viability, T/C [19]: 91.8% | viability, T/C [20]: 119% | viability, T/C [21]: 106% | viability, T/C [22]: 78.6% | viability, T/C (second compound 3.16 µM, first compound 0.00316 µM): 95.2% | viability, T/C (second compound 3.16 µM, first compound 0.01 µM): 92.5% | viability, T/C [23]: 82.3% | viability, T/C [24]: 92.5% | viability, T/C [25]: 95.8% | viability, T/C [26]: 93% | viability, T/C (second compound 10 µM, first compound 0.00316 µM): 95.5% | viability, T/C (second compound 10 µM, first compound 0.01 µM): 89.4% | viability, T/C [27]: 90.2% | viability, T/C [28]: 96.8% | viability, T/C [29]: 108% | viability, T/C [30]: 80.5%

COc1cccc2c1C(=O)c1c(O)c3c(c(O)c1C2=O)CC(O)(C(=O)CO)CC3OC1CC(N)C(O)C(C)O1 (stereo not given)
viability, T/C (compound 0.0316 µM): 75.6% and 69% | viability, T/C (compound 0.1 µM): 76.5% and 74% | viability, T/C (compound 0.316 µM): 43.8% and 43.9% | viability, T/C (compound 1 µM): 14% and 12.3% | viability, T/C (compound 3.16 µM): 0.38% and 0.72% | viability, T/C (compound 10 µM): 0.37% and 0.77% | IC50 (curve of compound): 266 nM and 257 nM

CC(=O)O[C@H]1C(=O)[C@@]2(C)[C@H]([C@H](OC(=O)c3ccccc3)[C@]3(O)C[C@H](OC(=O)[C@H](O)[C@@H](NC(=O)c4ccccc4)c4ccccc4)C(C)=C1C3(C)C)[C@]1(OC(C)=O)CO[C@@H]1C[C@@H]2O + CN1CCN(c2cc(C(=O)Nc3cc4cc(-c5cnn(C)c5)ccc4cn3)ccn2)CC1
IC50 [1]: < 31.6 nM | IC50 [2]: > 10000 nM | IC50 [3]: < 31.6 nM | IC50 [4]: < 31.6 nM | IC50 [5]: < 31.6 nM | IC50 [6]: < 31.6 nM | viability, T/C [7]: 40.8% | viability, T/C [8]: 44.8% | viability, T/C [9]: 32.3% | viability, T/C [10]: 34.3% | viability, T/C [31]: 33.1% | viability, T/C [32]: 37.7% | viability, T/C [11]: 72.7% | viability, T/C [12]: 61.2% | viability, T/C [13]: 58.8% | viability, T/C [14]: 64.5% | viability, T/C [33]: 51.6% | viability, T/C [34]: 51.1% | viability, T/C [15]: 19% | viability, T/C [16]: 15.1% | viability, T/C [17]: 20.1% | viability, T/C [18]: 14.2% | viability, T/C [35]: 18% | viability, T/C [36]: 18.5% | viability, T/C [19]: 1.6% | viability, T/C [20]: 1.9% | viability, T/C [21]: 4.17% | viability, T/C [22]: 1.92% | viability, T/C [37]: 2.39% | viability, T/C [38]: 1.8% | viability, T/C [23]: 1.6% | viability, T/C [24]: 3.09% | viability, T/C [25]: 2.8% | viability, T/C [26]: 1.31% | viability, T/C [39]: 1.95% | viability, T/C [40]: 2.83% | viability, T/C [27]: 2.83% | viability, T/C [28]: 0.86% | viability, T/C [29]: 2.92% | viability, T/C [30]: 1.09% | viability, T/C [41]: 2.45% | viability, T/C [42]: 2.11%

CC(CO)NC(=O)c1cc(-c2ccc(Cl)cc2)nn(-c2cnn(C)c2)c1=O (stereo not given) + CN1CCN(c2cc(C(=O)Nc3cc4cc(-c5cnn(C)c5)ccc4cn3)ccn2)CC1
IC50 [1]: > 10000 nM | IC50 [2]: > 10000 nM | IC50 [3]: < 31.6 nM | IC50 [4]: < 31.6 nM | IC50 [5]: < 31.6 nM | IC50 [6]: < 31.6 nM | viability, T/C [7]: 129% | viability, T/C [8]: 113% | viability, T/C [9]: 128% | viability, T/C [10]: 120% | viability, T/C [31]: 115% | viability, T/C [32]: 108% | viability, T/C [11]: 130% | viability, T/C [12]: 128% | viability, T/C [13]: 135% | viability, T/C [14]: 125% | viability, T/C [33]: 135% | viability, T/C [34]: 130% | viability, T/C [15]: 21.2% | viability, T/C [16]: 17% | viability, T/C [17]: 17.9% | viability, T/C [18]: 17.5% | viability, T/C [35]: 18.3% | viability, T/C [36]: 18.2% | viability, T/C [19]: 2.7% | viability, T/C [20]: 2.28% | viability, T/C [21]: 1.94% | viability, T/C [22]: 1.84% | viability, T/C [37]: 2.34% | viability, T/C [38]: 1.94% | viability, T/C [23]: 2.22% | viability, T/C [24]: 2.04% | viability, T/C [25]: 1.99% | viability, T/C [26]: 2.65% | viability, T/C [39]: 2.74% | viability, T/C [40]: 2.69% | viability, T/C [27]: 1.3% | viability, T/C [28]: 1.36% | viability, T/C [29]: 2.02% | viability, T/C [30]: 1.53% | viability, T/C [41]: 3.43% | viability, T/C [42]: 2.58%
